{"source": "patent US20050004193A1", "about": "“Pharmaceutical combination for the prevention or treatment of cardiovascular, cardiopulmonary, pulmonary, or renal diseases” (Boehringer Ingelheim International GmbH, priority 2003, published 2005)", "key": {"[1]": {"molecular_target": "T1, human PPARgamma-ligand binding domain (LBD) (Homo sapiens, UniProt P37231)", "T1 construct": "codes for the amino acids 205-505 of the human PPARgamma2 transcription factor; made in house; host or cells: E. coli BL21(DE3), vector pGEX4T-1", "T1 sequence (P37231 205-505)": "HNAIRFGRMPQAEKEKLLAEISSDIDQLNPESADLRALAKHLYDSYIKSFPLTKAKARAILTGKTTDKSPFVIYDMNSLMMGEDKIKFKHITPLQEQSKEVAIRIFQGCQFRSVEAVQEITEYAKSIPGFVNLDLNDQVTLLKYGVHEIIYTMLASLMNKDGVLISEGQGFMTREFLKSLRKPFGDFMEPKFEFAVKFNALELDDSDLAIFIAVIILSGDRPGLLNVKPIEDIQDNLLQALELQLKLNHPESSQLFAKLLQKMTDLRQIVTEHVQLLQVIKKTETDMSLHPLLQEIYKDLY", "assay": "AlphaScreen: recruiting of CBP LXXLL peptide by GST-PPARgamma-LBD", "type": "biochemical", "conditions": "for direct activation of the PPARgamma-LBD / recruiting of the LXXLL peptide: concentrations of up to 50 μM", "experimental": "Protein containing the human PPARgamma-ligand binding domain (LBD) is prepared as a GST fusion protein in E. coli and purified by affinity chromatography. […] The fusion protein is expressed in the E. coli strain BL21(DE3) recommended for pGEX vectors after induction with 0.2 mM IPTG for 4 hours at 25° C. The bacteria are pelleted after the induction and frozen in batches in PBS, pH 7.4. After opening up in a French Press, the dissolved GST-PPARgamma-LBD-fusion protein is purified using a GSTrap column (Pharmacia). Elution is carried out by the addition of 20 mM reduced glutathione. The GST-PPARgamma-LBD-protein fractions are desalinated using a HiTrap desalting column (Pharmacia) and the protein concentration is determined using a standard assay.\nThe assay buffer consists of 25 mM Hepes pH7.4, 100 mM NaCl, 1 mM DTT, 0.1% Tween-20, and 0.1% BSA. […] The final DMSO concentration in the assay is 1% (v/v). A 1% DMSO solution is used as the background control (NSB). The measurement is done using a Packard fusion measuring device."}, "[2]": {"molecular_target": "T2, human PPARgamma-ligand binding domain (LBD) (Homo sapiens, UniProt P37231)", "T2 sequence (P37231 205-505)": "T1 sequence (P37231 205-505)", "T2 sequence (P19793 220-461 partner limits assumed)": "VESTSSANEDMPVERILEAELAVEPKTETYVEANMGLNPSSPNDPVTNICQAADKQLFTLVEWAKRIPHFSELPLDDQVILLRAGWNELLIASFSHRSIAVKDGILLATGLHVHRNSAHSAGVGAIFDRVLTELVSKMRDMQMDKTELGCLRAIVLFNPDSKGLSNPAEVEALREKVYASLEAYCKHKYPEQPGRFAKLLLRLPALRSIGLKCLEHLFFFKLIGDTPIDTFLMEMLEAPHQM", "assay": "SPA assay: displacement of 3H-labeled rosiglitazone from PPARgamma-LBD", "conditions": "for MW (SPA signal, bound 3H-rosiglitazone): NSB 217, Bmax 911; for displacement of the radioactive rosiglitazone from the binding pocket: very large excesses of test substance", "experimental": "Protein containing the human PPARgamma-ligand binding domain (LBD) is prepared as a GST fusion protein in E. coli and purified by affinity chromatography. To do this, a DNA section which codes for the amino acids 205-505 of the human PPARgamma2 transcription factor (cf. Genbank entry U79012) is subcloned via the additionally inserted restriction cutting sites BamH I and Xho I into the expression vector pGEX4T-I (Amersham) and the sequence of the section is monitored. […] The bacteria are pelleted after the induction and frozen in batches in PBS, pH 7.4. After opening up in a French Press, the dissolved GST-PPARgamma-LBD-fusion protein is purified using a GSTrap column (Pharmacia). Elution is carried out by the addition of 20 mM reduced glutathione. The GST-PPARgamma-LBD-protein fractions are desalinated using a HiTrap desalting column (Pharmacia) and the protein concentration is determined using a standard assay. Protein containing the human RXRalpha ligand binding domain (LBD) is prepared as a His tag fusion protein in E. coli and purified by affinity chromatography. To do this, a DNA section which codes for the amino acids 220-461 of the human RXRalpha transcription factor (cf. Genbank entry NM_002957, nt 729-1457) is subcloned via the additionally introduced restriction cutting sites BamH I and Not I into the expression vector pET28c (Novagen) and the sequence of the section is monitored. The fusion protein is expressed in the E. […] The bacteria are pelleted after the expression and frozen in batches in PBS, pH 7.4. After opening up in a French Press, the dissolved His-RXRalpha-LBD-fusion protein is purified using a HiTrap chelating column (Pharmacia). Elution is carried out using a 500 mM imidazole step. The His-RXRalpha-LBD protein fractions are desalinated using a HiTrap desalting column (Pharmacia) and the protein concentration is determined using a standard assay. A description of the SPA assay format can be found in R. Mukherjee et al., J Steroid Biochem Mol Biol (2002) 81:217-225."}, "[3]": {"molecular_target": "T3, fusion protein of ligand binding domain of human PPARgamma2 transcription factor and yeast GAL4 DNA binding domain (Homo sapiens, UniProt P37231)", "T3 construct": "codes for amino acids 205-505 of the human PPARgamma2 transcription factor; expressed in transfected cells", "T3 sequence (P37231 205-505)": "T1 sequence (P37231 205-505)", "assay": "Luciferase activity in stably transformed PPARgamma reporter cell line (CHO-K1 clone 11)", "type": "cell-based", "method": "After 24 hours, the medium is changed for one without any added G418. The test substances are brought to 100 times the desired concentration with a suitable solvent, e.g., DMSO, and diluted 1:100 with the medium placed in the cell culture plate. The solvent used, e.g., DMSO, is used as the background control in the same concentration. […] Luminescence is measured after a five minute wait using a Packard TopCount NXT. The luciferase activity is obtained by integrating the relative luciferase units (RLU) of the first ten seconds after the start of measurement."}, "[4]": {"assay": "Dissolution of active substances from Tablet 3", "type": "physicochemical", "conditions": "Tablet 3, three batches", "source_text": "This combination of active substances and excipients is then compressed with a suitable tablet press (e.g., Korsch EKO or Fette P1200) to form tablets. […]"}}, "note": "Where “and” joins values, the source holds several entries; their conditions need not be identical. Equal values may be shown once."}
{"smiles": "CCCCC1=NC2(CCCC2)C(=O)N1Cc1ccc(-c2ccccc2-c2nnn[nH]2)cc1", "note": "[Irbesartan]", "values": [{"measurement": "direct activation of the PPARgamma-LBD / recruiting of the LXXLL peptide", "setting": "[1]", "result": "does not result in any direct activation of the PPARgamma-LBD"}, {"measurement": "MW (SPA signal, bound 3H-rosiglitazone)", "setting": "[2]; conc. 1.00E-04 M", "result": 510}, {"measurement": "MW (SPA signal, bound 3H-rosiglitazone)", "setting": "[2]; conc. 3.00E-07 M", "result": 810}, {"measurement": "displacement of the radioactive rosiglitazone from the binding pocket", "setting": "[2]", "result": "no concentration-dependent displacement of the radioactive rosiglitazone"}]}
{"smiles": "CCCCc1nc(Cl)c(CO)n1Cc1ccc(-c2ccccc2-c2nn[nH]n2)cc1", "note": "[Losartan]", "values": [{"measurement": "direct activation of the PPARgamma-LBD / recruiting of the LXXLL peptide", "setting": "[1]", "result": "does not result in any direct activation of the PPARgamma-LBD"}, {"measurement": "displacement of the radioactive rosiglitazone from the binding pocket", "setting": "[2]", "result": "no concentration-dependent displacement of the radioactive rosiglitazone"}]}
{"smiles": "CCCc1nc2c(C)cc(-c3nc4ccccc4n3C)cc2n1Cc1ccc(-c2ccccc2C(=O)O)cc1", "note": "[Telmisartan, 4′-[2-n-propyl-4-methyl-6-(1-methylbenzimidazol-2-yl)benzimidazol-1-ylmethyl]biphenyl-2-carboxylic acid]", "values": [{"measurement": "activation of the PPARgamma pathway in the PPARgamma reporter cell line", "setting": "[3]", "result": "particularly potent activation of the PPARgamma pathway"}, {"measurement": "MW (luciferase activity)", "setting": "[3]; conc. 3.00E-07 M, 24 hours", "result": 760, "unit": "RLU"}, {"measurement": "MW (AlphaScreen signal)", "setting": "[1]; conc. 3.00E-06 M", "result": 720}, {"measurement": "direct activation of the PPARgamma-LBD / recruiting of the LXXLL peptide", "setting": "[1]", "result": "does not result in any direct activation of the PPARgamma-LBD"}, {"measurement": "displacement of the radioactive rosiglitazone from the binding pocket", "setting": "[2]", "result": "no concentration-dependent displacement of the radioactive rosiglitazone"}]}
{"smiles": "NS(=O)(=O)c1cc2c(cc1Cl)NCNS2(=O)=O", "note": "[hydrochlorothiazide]", "values": [{"measurement": "dissolution of hydrochlorothiazide from tablets", "setting": "[4]; 900 mL of 0.1 M HCl, 100 rpm, 30 minutes", "result": "69±6.3% and 72±2.1% and 78±1.8%"}]}
{"smiles": "CCCc1nc2c(C)cc(-c3nc4ccccc4n3C)cc2n1Cc1ccc(-c2ccccc2C(=O)[O-])cc1.[Na+]", "note": "[telmisartan sodium salt]", "values": [{"measurement": "dissolution of telmisartan sodium salt from tablets", "setting": "[4]; 900 mL of 0.1 M phosphate buffer, pH 7.5, 30 minutes stirring, 75 rpm", "result": "92±1.5% and 96±1.8% and 100±1.0%"}]}
